Earlier results as cited in patent US6232438A, “Angiotensin converting enzyme inhibitors” (Nong Shim Co., Ltd., priority 1996, dated 2001).

Target: ACE (Homo sapiens, UniProt P12821)
Conditions: peptide from enzymatic hydrolysate of milk casein

ACE, sequence (P12821 30-1306, species assumed): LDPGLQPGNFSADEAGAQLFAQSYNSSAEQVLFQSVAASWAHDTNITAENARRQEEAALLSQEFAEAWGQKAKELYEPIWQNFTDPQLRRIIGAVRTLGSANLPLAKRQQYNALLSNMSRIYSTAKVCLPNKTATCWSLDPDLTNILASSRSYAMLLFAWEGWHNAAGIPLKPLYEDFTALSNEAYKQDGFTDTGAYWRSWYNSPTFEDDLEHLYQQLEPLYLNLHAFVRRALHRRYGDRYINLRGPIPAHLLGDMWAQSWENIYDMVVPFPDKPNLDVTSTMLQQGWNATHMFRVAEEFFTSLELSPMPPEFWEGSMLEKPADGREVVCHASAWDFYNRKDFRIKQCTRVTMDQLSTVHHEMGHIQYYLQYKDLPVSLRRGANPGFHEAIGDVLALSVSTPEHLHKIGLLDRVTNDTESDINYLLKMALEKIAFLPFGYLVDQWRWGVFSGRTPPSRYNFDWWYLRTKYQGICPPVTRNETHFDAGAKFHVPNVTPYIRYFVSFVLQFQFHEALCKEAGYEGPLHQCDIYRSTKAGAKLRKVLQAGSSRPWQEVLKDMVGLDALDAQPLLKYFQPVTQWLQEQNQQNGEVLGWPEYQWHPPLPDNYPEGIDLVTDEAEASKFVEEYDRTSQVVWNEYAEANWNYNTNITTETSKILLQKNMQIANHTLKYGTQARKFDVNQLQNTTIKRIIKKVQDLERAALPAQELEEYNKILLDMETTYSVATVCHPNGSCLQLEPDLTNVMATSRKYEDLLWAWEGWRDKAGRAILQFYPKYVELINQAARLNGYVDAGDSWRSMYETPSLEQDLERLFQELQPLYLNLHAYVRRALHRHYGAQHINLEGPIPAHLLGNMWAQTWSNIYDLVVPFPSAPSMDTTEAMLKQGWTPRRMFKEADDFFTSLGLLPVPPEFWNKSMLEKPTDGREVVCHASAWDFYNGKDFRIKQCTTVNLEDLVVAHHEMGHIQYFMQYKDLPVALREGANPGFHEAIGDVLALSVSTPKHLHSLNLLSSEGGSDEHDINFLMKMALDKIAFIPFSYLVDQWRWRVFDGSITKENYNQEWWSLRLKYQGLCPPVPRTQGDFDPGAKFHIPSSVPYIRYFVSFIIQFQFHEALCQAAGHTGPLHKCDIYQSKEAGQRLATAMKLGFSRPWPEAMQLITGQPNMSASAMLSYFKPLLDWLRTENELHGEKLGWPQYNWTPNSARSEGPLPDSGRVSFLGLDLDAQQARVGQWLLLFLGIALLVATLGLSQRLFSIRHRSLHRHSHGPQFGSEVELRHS

## phenylalanine-phenylalanine-valine-alanine-proline
  IC50: 6 µM
